Reference: publication PMC7037682, “Herb–Drug Interaction of Red Ginseng Extract and Ginsenoside Rc with Valsartan in Rats” (Molecules, 2020)
One block for each compound: values may come before it.

Columns and labels:
[1] = Plasma pharmacokinetics of ginsenosides in rats after 1-week repeated RGE; conditions: LC-MS/MS, after RGE 1.5 g/kg/day po for 1 week
Procedure: The rats were randomly divided into the control and RGE groups. The RGE group received a RGE suspension (1.5 g/mL/kg/day, in distilled water) for 7 days via oral gavage. The control group received distilled water for 7 days via oral gavage. After 1 h following the last RGE treatment, valsartan was injected intravenously to both groups via the tail vein at 1 mg/mL/kg (dissolved in DMSO: saline = 2:8, v/v). […] After centrifugation of the blood samples at 16,000× g for 10 min, aliquots (50 μL each) of plasma samples were stored at −80 °C until the analysis of ginsenosides and valsartan.
The residue was reconstituted with 100 μL of 70% methanol consisting of 0.1% formic acid. An aliquot (20 μL) from the sample was injected into the LC-MS/MS system.
After freezing the aqueous layer at −80 °C for 2 h, the upper organic layer was transferred to a clean tube and evaporated to dryness. […] An aliquot (20 μL) from the sample was injected into the LC-MS/MS system. The samples were eluted through an Omega Polar C18 column (2.1 mm × 100 mm, 3 µm particle size) (Phenomenex, Torrance, CA, USA) using a mobile phase consisting of 0.1% formic acid in water: 0.1% formic acid in methanol (15:85, v/v) at a flow rate of 0.2 mL/min.
Pharmacokinetic parameters were calculated from plasma concentration-time profile using non-compartment analysis of WinNonlin (version 5.1; Pharsights, Cary, NC, USA). The statistical significance was assessed by t-test using Statistical Package for the Social Sciences (version 24.0; SPSS Inc., Chicago, IL, USA).

UGT1A9 = conditions: cited from earlier work
in vivo [2] = conditions: rat, iv, 1 mg/kg
Procedure: Quantification was performed in the selected reaction-monitoring mode at m/z 436.1 → 291.0 for valsartan and m/z 336.1 → 320.0 for berberine. […] The intraday and interday precision ranged from 1.80% to 9.23%.

OATP1B3 = biological target: T1, OATP1B3 (Homo sapiens, UniProt Q9NPD5); assay: Valsartan uptake by HEK293-OATP1B3 cells versus mock cells; assay type: cell-based; design: host or cells: HEK293; conditions: 5 μM valsartan
T1 sequence (Q9NPD5 1-702): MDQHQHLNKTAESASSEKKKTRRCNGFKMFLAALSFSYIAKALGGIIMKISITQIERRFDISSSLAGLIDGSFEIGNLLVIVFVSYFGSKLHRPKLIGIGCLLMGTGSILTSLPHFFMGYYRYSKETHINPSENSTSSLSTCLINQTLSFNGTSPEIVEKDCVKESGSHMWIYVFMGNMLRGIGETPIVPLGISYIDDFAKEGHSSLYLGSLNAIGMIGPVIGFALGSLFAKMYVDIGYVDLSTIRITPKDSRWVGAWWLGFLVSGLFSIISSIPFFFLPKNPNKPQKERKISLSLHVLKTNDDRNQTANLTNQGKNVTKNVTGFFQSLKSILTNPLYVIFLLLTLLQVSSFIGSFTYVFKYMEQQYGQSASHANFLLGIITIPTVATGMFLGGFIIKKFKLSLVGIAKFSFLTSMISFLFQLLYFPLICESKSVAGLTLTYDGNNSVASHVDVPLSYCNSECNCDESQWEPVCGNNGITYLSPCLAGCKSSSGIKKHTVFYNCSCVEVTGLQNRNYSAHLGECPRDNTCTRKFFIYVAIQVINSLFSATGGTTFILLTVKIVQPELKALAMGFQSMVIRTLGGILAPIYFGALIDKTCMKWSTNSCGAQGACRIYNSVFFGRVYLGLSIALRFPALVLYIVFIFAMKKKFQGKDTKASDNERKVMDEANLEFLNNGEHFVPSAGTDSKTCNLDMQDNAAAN
Procedure: (§1) The uptake of valsartan 5 (μM)was measured for 5 min immediately after adding aliquots (100 μL) of HBSS containing 5 μM valsartan in the presence or absence of rifampin (1–100 μM) or tri-glycosylated PPD-type ginsenosides (Rb1, Rb2, and Rc; 0.1–100 μM) to the HEK293-mock cells and HEK293-OATP1B1 and –OAPT1B3 cells after aspirating pre-incubated HBSS. […] After the centrifugation of cell lysate samples (16,000× g, 5 min, 4 °C), aliquots (4 μL) of cell lysate samples were injected into LC-MS/MS system for the analysis of valsartan. Transporter mediated uptake of probe substrates or valsartan was calculated by subtracting the uptake rate of probe substrates or valsartan into HEK293-mock cells from that into HEK293 cells expressing respective transporters.

[3] = Pharmacokinetics of iv valsartan in rats with or without repeated iv Rc; assay type: in vivo; conditions: rat, plasma, 1 mg/kg, valsartan 1 mg/kg iv; for AUC(0-t): read-out: AUC24h
Procedure: The rats were randomly divided into the control and Rc groups. The Rc group was injected with Rc solution (3 mg/mL/kg, dissolved in saline) intravenously via the tail vein for 5 consecutive days. The control group received saline (1 mL/kg) for 5 consecutive days via the tail vein. […] Quantification was performed in the selected reaction-monitoring mode at m/z 436.1 → 291.0 for valsartan and m/z 336.1 → 320.0 for berberine. […] The intraday and interday precision ranged from 1.80% to 9.23%.

OATP1B1 and OATP1B3 = conditions: human ref 29, 30; cited from earlier work
Oatps = conditions: rats ref 29, 30; cited from earlier work
in vivo [4] = conditions: rat, iv, 1 mg/kg; remark: listed apart in the source
Procedure: The rats were randomly divided into the control and rifampin groups. […] Quantification was performed in the selected reaction-monitoring mode at m/z 436.1 → 291.0 for valsartan and m/z 336.1 → 320.0 for berberine. […] The intraday and interday precision ranged from 1.80% to 9.23%.

OATP1B1 = biological target: T2, OATP1B1 (Homo sapiens, UniProt Q9Y6L6); assay: Valsartan uptake by HEK293-OATP1B1 cells versus mock cells; assay type: cell-based; design: host or cells: HEK293; conditions: 5 μM valsartan
T2 sequence (Q9Y6L6 1-691): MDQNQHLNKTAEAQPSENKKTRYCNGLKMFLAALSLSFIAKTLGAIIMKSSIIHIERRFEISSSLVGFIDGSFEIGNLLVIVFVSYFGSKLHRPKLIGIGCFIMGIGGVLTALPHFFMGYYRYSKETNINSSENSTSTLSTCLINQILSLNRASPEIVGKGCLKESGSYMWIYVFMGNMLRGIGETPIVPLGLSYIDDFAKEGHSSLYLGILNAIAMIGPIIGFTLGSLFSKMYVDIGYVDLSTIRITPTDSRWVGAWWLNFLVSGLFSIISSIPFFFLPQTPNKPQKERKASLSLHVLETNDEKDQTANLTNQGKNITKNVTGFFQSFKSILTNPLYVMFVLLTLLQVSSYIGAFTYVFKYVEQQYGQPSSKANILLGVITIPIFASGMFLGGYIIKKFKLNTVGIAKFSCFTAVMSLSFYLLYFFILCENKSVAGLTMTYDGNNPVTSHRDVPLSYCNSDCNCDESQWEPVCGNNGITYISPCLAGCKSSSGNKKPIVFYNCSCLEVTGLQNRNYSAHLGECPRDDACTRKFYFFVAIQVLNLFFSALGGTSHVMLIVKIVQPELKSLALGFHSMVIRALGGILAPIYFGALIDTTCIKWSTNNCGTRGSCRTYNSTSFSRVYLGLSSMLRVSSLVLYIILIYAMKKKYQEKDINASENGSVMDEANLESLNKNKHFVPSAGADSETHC
Procedure: as §1

[5] = after Rc 3 mg/kg/day iv for 5 days

detection in rat plasma [1]: not detected
SMILES: CC(C)=CCC[C@](C)(O[C@@H]1O[C@H](CO)[C@@H](O)[C@H](O)[C@H]1O)[C@H]1CC[C@]2(C)[C@@H]1[C@H](O)C[C@@H]1[C@@]3(C)CC[C@H](O)C(C)(C)[C@@H]3[C@@H](O)C[C@]12C [F1]
IC50 UGT1A9 (UGT1A9): did not inhibit

AUC24h (in vivo [2]): 776.59 ± 228.82 ng·h/mL | C0 (in vivo [2]): 781.47 ± 211.04 ng/mL | MRT (in vivo [2]): 3.81 ± 0.05 h | T1/2 (in vivo [2]): 4.59 ± 0.73 h | Vd (in vivo [2]): 0.08538 ± 0.02582 L/kg | AUC(0-t) (in vivo [2]; AUC24h): 859 ± 234 ng·h/mL | AUC(0-inf) (in vivo [2]; AUC∞): 882 ± 247 ng·h/mL | C0 (in vivo [2]; C0): 648 ± 50.5 ng/mL | clearance (in vivo [2]; CL): 20 ± 5.48 mL/min/kg | MRT (in vivo [2]; MRT): 3.76 ± 1.16 h | half-life (in vivo [2]; T1/2): 4.55 ± 0.98 h | Vd (in vivo [2]; Vd): 4.33 ± 0.922 L/kg | Valsartan uptake increase, HEK293-OATP1B3 vs HEK293-mock (OATP1B3): 26.1 fold | AUC(0-inf) [3, 5]: 836 ± 112 ng·h/mL | C0 [3, 5]: 1450 ± 998 ng/mL | MRT [3, 5]: 2.94 ± 1.52 h | Vd [3, 5]: 3.46 ± 1.64 L/kg | clearance [3, 5]: 20.2 ± 2.86 mL/min/kg | half-life [3, 5]: 3.3 ± 1.51 h | AUC(0-t) [3, 5]: 809 ± 112 ng·h/mL | AUC(0-inf) ([3]; control group of Rc study): 657 ± 84.9 ng·h/mL | C0 ([3]; control group of Rc study): 401 ± 77.8 ng/mL | MRT ([3]; control group of Rc study): 2.27 ± 0.67 h | Vd ([3]; control group of Rc study): 3.43 ± 0.794 L/kg | clearance ([3]; control group of Rc study): 25.7 ± 3.5 mL/min/kg | half-life ([3]; control group of Rc study): 2.41 ± 1.3 h | AUC(0-t) ([3]; control group of Rc study): 639 ± 80.7 ng·h/mL | C0 (in vivo [4]): 1633.08 ± 1308.67 ng/mL | MRT (in vivo [4]): 3.37 ± 0.83 h | T1/2 (in vivo [4]): 2.79 ± 0.32 h | Vd (in vivo [4]): 0.05503 ± 0.02629 L/kg | C0 (in vivo [4]; C0): 1170 ± 119 ng/mL | clearance (in vivo [4]; CL): 26 ± 6.3 mL/min/kg | MRT (in vivo [4]; MRT): 2.99 ± 0.47 h | half-life (in vivo [4]; T1/2): 4.48 ± 1.24 h | Vd (in vivo [4]; Vd): 4.7 ± 1.54 L/kg | Valsartan uptake increase, HEK293-OATP1B1 vs HEK293-mock (OATP1B1): 19.8 fold
SMILES: CCCCC(=O)N(Cc1ccc(-c2ccccc2-c2nnn[nH]2)cc1)[C@H](C(=O)O)C(C)C [Valsartan, valsartan]
contribution of Oatp transporters in the hepato-biliary excretion (OATP1B1 and OATP1B3): 70–85% | contribution of Oatp transporters in the hepato-biliary excretion (Oatps): 70–85%

detection in rat plasma [1]: not detected
SMILES: CC(C)=CCC[C@](C)(O[C@@H]1O[C@H](CO)[C@@H](O)[C@H](O)[C@H]1O)[C@H]1CC[C@]2(C)[C@@H]1[C@H](O)C[C@@H]1[C@@]3(C)CC[C@H](O[C@@H]4O[C@H](CO)[C@@H](O)[C@H](O)[C@H]4O)C(C)(C)[C@@H]3CC[C@]12C [F2]

SMILES: CC(C)=CCC[C@](C)(O)[C@H]1CC[C@]2(C)[C@@H]1[C@H](O)C[C@@H]1[C@@]3(C)CC[C@H](O)C(C)(C)[C@@H]3[C@@H](O[C@@H]3O[C@H](CO)[C@@H](O)[C@H](O)[C@H]3O[C@@H]3O[C@H](CO)[C@@H](O)[C@H](O)[C@H]3O)C[C@]12C [Rf]
IC50 UGT1A9 (UGT1A9): did not inhibit
